Several values for one entry are separate records, joined by “and”; a condition that tells them apart may be missing. Identical values can stand only once.
How the values were obtained:
[1] = test system: J-Lat 9.2 latent cells; experiment: LRA activity on J-Lat 9.2 latent cells (GFP, FACS); type: cell-based; conditions: 5 μM, 24 h, GFP fluorescence by FACS
Method: FIG. 3A LRA activity of the compounds (1), (2) (3) (C-1, C-2, C-3) and SAHA (histone deacetylase inhibitor) at 5 μM on J-Lat 9.2 latent cells (derived from Jurkats). J-Lat 9.2 have a complete (single) HIV genome with a non-functional Env gene, and a GFP instead of Nef (Symons, J., and al., Retrovirology, 2017. 14(1): p. 2; Jordan, A., and al., The EMBO journal, 2003. 22(8): p. 1868-77). The activation of these viruses can be followed by the production of GFP and therefore by the detection of green fluorescence in the cells, followed by FACS. n=3. Means+/−SEM.**, p<0.01, compared to the drug-free control (One-way ANOVA).
To test the LRA effect of the molecules, JLat9.2 cells were first used. This latent cell line (source: NIH AIDS Reagents Program, NARP) derived from Jurkat cells contains an HIV genome with an inactivated Env gene and a GFP instead of Nef (Retrovirology, 14 (2017) 2). The lifting of latency is accompanied by the emission of fluorescence from GFP. The cells were treated with molecules at 5 μM for 24 h before analysis of the cells with a FACScalibur to determine the % of cells emitting fluorescence. It can be seen in FIG. 3A that the compound (2) at 5 μM has a significant LRA activity, of the order of 20-30% of that of SAHA.

[2] = test system: Tat protein; experiment: Transactivation by Tat in HeLa cells (LTR-firefly/TK-renilla luciferase); type: cell-based, HIV-1; conditions: for transactivation by extracellular Tat relative to control / transactivation by intracellular Tat relative to negative control: 5 μM compound, HeLa, 24 h; for transactivation by extracellular Tat relative to control: 200 nM Tat extra; for transactivation by intracellular Tat relative to negative control: Tat transfected (Tat intra)
Method: FIG. 2 Evaluation of the transactivating activity of the Tat protein of HeLa cells in the presence of 5 μM of the compound (2) (C-2) or of the compound (3) (C-3). HeLa cells were transfected with plasmids containing LTR-firefly and TK-renilla. In the Tat intra condition, Tat is co-transfected. 18 h after transfection the compounds (2) or (3) were added (5 μM), as well as 200 nM Tat for the Tat extra condition. The cells are lysed for the luciferase tests 24 hours later. The firefly/renilla ratio obtained under control conditions was set at 100. n=2. Means+/−SEM.**, p<0.01, ***, p<0.001 and ****, p<0.0001 compared to the drug-free control (One-way ANOVA).
For this test, the effect of the molecules on transactivation by the extracellular or intracellular Tat protein was monitored by the activity of two luciferases. On the one hand the Firefly luciferase, which is under the control of a viral promoter LTR dependent on the Tat protein, and on the other hand the Renilla luciferase (internal control), under the control of a Thymidine kinase cellular promoter independent of the Tat protein. Transactivation is expressed by the Firefly/Renilla ratio. All plasmids and the procedure have been described (Mol Biol Cell 15 (2004), 2347).
This series of experiments was carried out in the HeLa line. Cells were transfected with PEImax (Nature Comms 9 (2018) 2251). The drugs and Tat (if Tat extra) were added 18 h after transfection as indicated, and left for 24 h before lysing the cells. The luciferases are then assayed using Promega's Dual-Glo kit and a Tecan SPARK 10M plate reader. Extracellular Tat has the property of being able to enter into the cells.

[3] = test system: latent T-CD4+ lymphocyte cells from HIV-1 patients; experiment: Ex vivo LRA activity on quiescent T-CD4+ cells of HIV-1 patients (p24); type: cell-based, human; conditions: for LRA efficacy compared with BST-1: 50-100 nM, 18-20 h, p24 in supernatant
Method: FIG. 5 Ex vivo LRA activity on quiescent T-CD4^+ lymphocyte cells of HIV-1 patients. T-CD4 cells were isolated by negative selection before elimination of activated cells (CD25^+, CD69^+, HLA-DR^+) to obtain quiescent cells which were treated with drugs for 18-20 h to avoid reinfections. The LRA activity of the compounds (2) (C-2) and (3) (C-3) was determined by monitoring the viral protein p24 in the supernatant using a commercial ELISA test improved by the use of a luminescent substrate. The detection limit of p24 was 0.2 pg/ml. The response to BST-1 (10 nM) was set at 100% to allow comparison of LRA efficacy between patients (1 point=1 patient).
The ex vivo LRA activity of the compounds according to the invention was tested on latent T-CD4^+ lymphocyte cells from HIV-1 patients. All 8 patients had been under ART treatment for at least 6 months and their viral load was undetectable. Blood samples (20 ml) were taken (agreement with Montpellier University Hospital, Resp: Dr Edouard Tuaillon). After purification of white blood cells on Ficoll-Hypaque, negative selection of T-CD4^+ cells, elimination of activated T-CD4 cells (CD25^+, CD69^+, HLA-DR^+) (Milenyi kits), quiescent cells were treated with the compounds for 18-20 h to avoid reinfections. An assay p24 was then performed using a luminescent reagent (Luminata forte, Millipore) at the end of the Innotest. The sensitivity of the test thus modified is ˜0.2 pg p24/ml. The response to BST-1 varied between patients from 0.2 to 80 pg/ml.

[4] = biological target: T1, Tat protein (86 residues, isolate BH10) (Human immunodeficiency virus type 1 group M subtype B, UniProt P69697); experiment: Fluorescence polarization binding of compound to recombinant Tat protein; parameters: species or system HIV-1
T1 construct: The recombinant Tat protein (86 residues, isolate BH10); made in house; host or cells: E. coli
Method: (§1) The recombinant Tat protein (86 residues, isolate BH10) was produced in E. coli and purified on heparin-Sepharose then by HPLC as described (Mol Biol Cell 15 (2004), 2347). The compound (2) (MolPort) being fluorescent (λex 320 nm; λem 410 nm), the fluorescence polarization technique (Methods Appl. Fluoresc. (2016) 4(2)) and a PTI fluorimeter were used for the study of the binding of said compound (17 nM) to the Tat protein (1-60 μM) in citrate buffer (50 mM citrate; 150 mM NaCl; pH 7.2). A Kd of the order of 5 μM was measured. An identical value (˜4 μM) was obtained by surface plasmon resonance (SPR; Biacore) by passing the compound (2) in citrate buffer over immobilized Tat on a CMS chip.

[5] = biological target: T1, Tat protein (86 residues, isolate BH10); experiment: Surface plasmon resonance (Biacore) on immobilized Tat; type: binding, HIV-1
Method: as §1

[6] = biological target: T2, Tat-TAR transcription complex (Human immunodeficiency virus type 1 group M subtype B, UniProt P69697); experiment: Retardation gel, affinity for Tat-TAR complex; type: binding, HIV-1
T2 construct: made in house; host or cells: E. coli
Method: FIG. 1A Delay gel showing the migration of TAR RNA which is free or complexed with the Tat protein (Tat/TAR) in the presence of different concentrations (0 to 120 nM) of the compound (2) (C-2). Tat (400 nM) was incubated with 200 nM of TAR-FAM (WT or Abulge) for 1.5 h in the absence or presence of the compound (2), before separation on a 0.5×TBE 8% acrylamide gel, and acquisition of the fluorescence image. The proteins from the gel were then transferred to a nitrocellulose membrane for Tat visualization by Western blot.
FIG. 1B Quantification of the affinity of the compound (2) (C-2) for the Tat-TAR transcription complex. The Tat-TAR fluorescence band of duplicate gels was quantified and the results are shown in the graph (AU, arbitrary units). n=2. Means+/−SEM. *, p<0.05; ***, p<0.001 compared to the control without the compound (2) (One-way ANOVA).
The affinity of the compound (2) for the Tat-TAR complex was studied by retardation gel. […] The fluorescence of the gel is first visualized with a Chemidoc (Biorad) to detect fluorescein (that is to say TAR). […]

[7] = test system: latent OM10.1 cells (promyeloblasts); experiment: LRA activity on OM10.1 latent cells (p24 ELISA); type: cell-based; conditions: 5 μM, p24 in supernatant
Method: FIG. 3B LRA activity of the compound (2) (C-2) and SAHA at 5 μM on latent OM10.1 cells (promyeloblasts). These latent cells, after induction, produce infectious viruses which are assayed in the supernatant by ELISA p24. n=2. Means+/−SEM.*, p<0.05 and ***, p<0.001 compared to the control medium alone (One-way ANOVA).
The results for the compound (2) were confirmed using another latent cell line, OM10.1 (promyeloblasts; source NARP; PLoS Pathog. 11 (2015) 1) which produces infectious HIV after induction. It was assayed by the viral antigen p24 (HIV-1 capsid protein) in the supernatant using an ELISA kit (Innotest).

[8] = test system: latent cell line ACH-2; experiment: Specificity: HIV-1 production in ACH-2 latent cells with mutated TAR (p24 ELISA); type: cell-based; conditions: compound (2), SAHA 5 μM, BST-1 10 nM
Method: Means+/−SEM. ****, p<0.0001 compared to the solvent control (One-way ANOVA).
Once induced, these cells produce infectious virions. For these tests, the viral antigen p24 in the cell supernatant was assayed with the Innotest p24 ELISA kit.

[9] = test system: Tat protein; experiment: Transactivation test on primary T-CD4 cells; type: cell-based, HIV-1; conditions: primary T-CD4 cells transfected with Tat, 24 h
Method: FIG. 6 Transactivation test on primary T-CD4 cells. Primary T-CD4 cells were isolated from the blood of healthy donors, then they were transfected with plasmids containing Tat, LTR-firefly and TK-renilla. 18 h after transfection different concentrations of the compound (2) (C-2) were added, and the lysed cells for the luciferase tests 24 h later. n=3. Means+/−SEM. *, p<0.05 and ***, p<0.001 compared to the control without C-2 (One-way ANOVA).
To verify this point, a transactivation test was carried out with primary T-CD4 cells. […] The need to use doses 100 times higher on cancerous cells (that is to say 5-10 μM) is due to the cancerization process of these cells.

T2 sequence (P69697 whole entry, one chain of several): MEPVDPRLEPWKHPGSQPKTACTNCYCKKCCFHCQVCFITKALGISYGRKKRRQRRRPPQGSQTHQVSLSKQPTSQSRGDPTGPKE
T1 sequence (P69697 whole entry): as the sequence (P69697 whole entry, one chain of several) above

| SMILES | LRA activity (in words) [1] | transactivation by extracellular Tat relative to control [2] [times] | transactivation by intracellular Tat relative to negative control [2] [times] | LRA efficacy compared with BST-1 [3] | Kd [4] [µM] | Kd [5] [µM] | concentration stabilizing the Tat-TAR transcription complex [6] | Kd ([6]; retardation gel, 400 nM Tat, 200 nM TAR, 1.5 h at 25° C.) [µM] | effective concentrations on laboratory cell lines ([2]; all the tests on laboratory cell lines (HeLa and That)) [µM] | LRA activity relative to that of SAHA [7] [%] | induction of HIV-1 production (p24) [8] | concentration sufficient for the LRA effect ex vivo ([3]; latent primary cells) | concentration most effective in activating transactivation by Tat [9] [nM] |
| --- | --- | --- | --- | --- | --- | --- | --- | --- | --- | --- | --- | --- | --- |
| COc1ccc(-c2nn3ccnc3s2)cc1NC(=O)c1ccc(OCc2ccccc2)cc1 [(1), 4-(benzyloxy)-N-(5-{imidazo[2,1-b][1,3,4]thiadiazol-2-yl}-2-methoxyphenyl)benzamide] | significant activity | – | – | – | – | – | – | – | – | – | – | – | – |
| O=C(Nc1ccc(-c2nc3ccccc3[nH]2)cc1)c1cccc(OCc2ccccc2)c1 [(3), N-[4-(1H-1,3-benzodiazol-2-yl)phenyl]-3-(benzyloxy)benzamide] | close to that of SAHA | 108 | 9 | at least as effective as BST-1 | – | – | – | – | – | – | – | – | – |
| COc1cc(C(=O)Nc2cc(-c3nc4ccccc4[nH]3)ccc2C)ccc1OCc1ccc(Cl)cc1 [Compound (2), N-[5-(1H-1,3-benzodiazol-2-yl)-2-methylphenyl]-4-[(4-chlorophenyl)methoxy]-3-methoxybenzamide] | – | 60 | 3.9 | at least as effective as BST-1 | ~5 | ~4 | 50 to 100 nM and 80 nM | ~0.08 | ~5 | ~40 | incapable of inducing the production of HIV-1 | 50 to 100 nM and 50 nM | 30 |

— patent US20230172913A1, “COMPOUNDS FOR USE IN THE REACTIVATION OF HIV IN LATENT HIV-INFECTED CELLS” (CENTRE NATIONAL DE LA RECHERCHE SCIENTIFIQUE, priority 2020, published 2023)
